Measured values: patent publication US5795857A, “Mimetic insect pyrokinin analogs for insect control” (The United States of America as represented by the …, priority 1996, dated 1998)

What was measured:
[1] = system: fleshfly larvae; test: Acceleration of pupariation after injection into fleshfly larvae; type: in vivo, Sarcophaga bullata; conditions: injected into fleshfly larvae
[2] = system: virgin females of Heliothis virescens; test: Pheromonotropic assay (topical application); type: in vivo; conditions: for dose approaching 100% maximal response, topical application: 15 minutes following topical application
Description: The amphiphilic carboranyl analog Cbe--Thr--Pro--Arg--Leu--NH2 was dissolved in water and solutions at concentrations of 5, 10, 25, 60, and 200 pmol/μl were prepared. The cuticular scales along the lateral side of the abdomen were removed with a 1 ml plastic pipet tip attached to house vacuum with a rubber hose. A low vacuum was applied to the apparatus and the pipet tip was gently passed over the cuticle until the scales were drawn by suction. After the scales were removed, 1 μl of peptide solution was applied to the surface of the cuticle and smoothed evenly over the prepared surface. […]
Pupae of Heliothis virescens were obtained from a laboratory colony maintained at the Insect Attractants Behavior and Basic Biology Research Laboratory, USDA-ARS, Gainesville, Fla. The pupae were separated by sex and the females were held in 4-1 cages. Cages were inspected daily for newly eclosed adults which were transferred to new cages and provided with cotton wicks soaked with a 5% sucrose solution. The insects were held at 25°[…] C. and 65%±3% relative humidity with a 12:12 (L:D) photoperiod. Virgin females were used for bioassays 2 and 3 days after eclosion during the 7th-8th hour of the photophase when little or no pheromone is present in the gland (Teal et al., 1993, Can. Entomol., 153:355-366). The cuticular scales were removed from the lateral side of the abdomen using a plastic pipet tip attached to house vacuum using a rubber hose. A low vacuum was applied and the pipet tip was passed gently over the cuticle until the scales were drawn off by suction. Insects were returned to the incubator for 24 h after the scales were removed for most experiments. However, insects were not given a recovery period in studies in which peptides were applied in DMSO (see below).
In initial studies we used dimethyl sulfoxide (DMSO) as a carrier to deliver Hez--PBAN or [6--Pha--Ala^0 ]Lom--MT--II for topical applications. […] We also assessed different carrier solvents for their ability to deliver these two peptides. Peptides were dissolved at a concentration of 500 pmol/μl in: DMSO, water, or 80% acetonitrile:20% water. Solutions were applied to the descaled abdomen in 1 μl of solvent as above. The insects were allowed to incubate for 1 h prior to excision and extraction of the pheromone gland. Extracts were analyzed for the amount of pheromone as above.
The use of water as a carrier for [6--Pha--Ala^0 ]Lom--MT--II was also assessed in dose response and temporal activity studies. For dose response studies [6--Pha--Ala^0 ]Lom--MT--II was dissolved in water at concentrations of 5, 10, 25, 50, 75, 100, 250, 500, 750 and 1000 pmol/μl. Insects were incubated for 60 min after application of 1 μl of solution to the descaled abdomen. In temporal activity studies a 100 pmol/μl dose was selected. For these experiments insects were incubated for periods of 15, 30, 60, 120, or 180 min after application of 1 μl of solution to the descaled abdomen. The ability of the parent peptide, Lom--MT--II, to stimulate pheromone production when applied topically in water was assessed by applying doses of 50, 100, 250 and 500 pmol to the abdomen. Control treatments for this experiment included insects treated with only water and females treated by topical application of 100 pmol of [6--Pha--Ala^0 ]Lom--MT--II. After incubation the sex pheromone glands were excised, extracted and analyzed for the amount of pheromone.

Cbe--Thr--Pro--Arg--Leu--NH2
concentration accelerating pupariation [1]: ≤ 0.25 picomoles/insect
ED50 (EC50), pheromone production after topical application ([2]; 1 μl aqueous solution on lateral abdominal surface, FIG. 4): 25 pmoles/female
ED50, pheromone production via topical application ([2]; H. virescens, 1 μl aqueous solution): 25 pmol
time after topical application at which pheromone production is elicited ([2]; aqueous solution): about 15 minutes
dose approaching 100% maximal response, topical application ([2]; aqueous solution, listed as carboranyl analog): 60 pmoles/female
dose approaching 100% maximal response, topical application ([2]; aqueous solution, listed as carboranyl peptide): about 60 pmoles/female
Maximal Response via topical application (dose) ([2]; relative to 5 pmoles PBAN via injection): 60 pmol
concentration giving maximal pheromone stimulation, topical application ([2]; topically applied): 60 picomoles/insect
